As a reminder, the mass density is the mass of a sample divided by its volume. A word on the surface tension liquid-gas: it is the force per length acting along the surface. The refractive index is the speed of light in vacuum divided by its phase velocity in the sample.

Molecules are shown by their SMILES. ± gives the expanded uncertainty stated by the source.

These results are taken from the NIST ThermoML archive (doi:10.1016/j.fluid.2013.10.060).

For data set [1] the following is noted: for mass density: 298.15 K, 101.33 kPa, Liquid, Vibrating tube method; for surface tension liquid-gas: 303.15 K, Maximal bubble pressure.
Data set [2] can be described thus: Boiling temperature at pressure P. To be noted: 101.33 kPa; Liquid; Ebulliometric method (Recirculating still).
A short description of data set [3]: refractive index (Na D-line) (dimensionless). Conditions: 298.15 K; 101.33 kPa; Liquid; Standard Abbe refractometry.

Take `CCO` [ethanol]: in data set [1], the mass density is 785.09 ± 0.15 kg/m3 and the surface tension liquid-gas amounted to 21.7 ± 0.18 mN/m. In data set [2], the “Boiling temperature at pressure P” value was 78.30 ± 0.02 °C. For the same compound, in data set [3], the refractive index worked out at 1.36068 ± 0.00031.

Regarding `CCCCCC` [hexane], in data set [1], the mass density is reported as 655.19 ± 0.18 kg/m3 and the surface tension liquid-gas was found to be 17.4 ± 0.16 mN/m. Besides, the refractive index in data set [3] was 1.37374 ± 0.00031.

With `C1CCOCC1` [tetrahydropyran], in data set [1], the mass density was 879.03 ± 0.13 kg/m3 and the surface tension liquid-gas is listed as 27.1 ± 0.2 mN/m. The “Boiling temperature at pressure P” value in data set [2] was determined as 88.21 ± 0.02 °C. In addition, the refractive index in data set [3] is listed as 1.42 ± 0.00031.
